Test results as given in patent US6068850A, “Aqueous formulations of peptides” (Alza Corporation, priority 1999, dated 2000).
Several values for one entry are separate records, joined by “and”; a condition that tells them apart may be missing. Equal values may be shown once. Read-outs that look alike come from different tables or passages of the source. One block for each molecule: values may come before it.

What was measured:
[1] = Accelerated stability of 30% goserelin at 80° C., purity by RP-HPLC; type: physicochemical; conditions: 30% (w/w) in acetate buffer pH 5.0 with 3% mannitol, glass ampules, after 9 days
[2] = Stability of 40-45% goserelin formulations, one month at 37° C., RP-HPLC; type: physicochemical; conditions: for % PURITY / % CONCENTRATION: 40-45% (w/w); for % CONCENTRATION: patent calls these data inconclusive
Protocol: (§1) Stability samples were analyzed using RP-HPLC. The area under the curve for the leuprolide peak divided by the sum of the areas under the curve of all peaks gave % purity. […] Formulations of 40-45% (w/w) goserelin in either acetate buffer, with 3% mannitol or acetate buffer with salt (0.9% NaCl) were prepared as described above and placed in polymeric containers. The containers were stored at 37° C. for one month in an incubator. The samples were analyzed using RP-HPLC to determine the chemical stability of the aged formulations.

[3] = Gelation of aqueous peptide formulations on adding polar aprotic solvents such as DMSO; type: physicochemical; conditions: aqueous formulation
Source text: Thus, these solvents have an anti-gellant effect.

[4] = type: physicochemical; conditions: for evaporated from reservoir / % Leuprolide at Day 7: 88° C.; for evaporated from reservoir: 7 days
Source text: The reservoirs of implantable drug delivery devices (as disclosed in U.S. patent application Ser. No. 08/595,761, incorporated herein by reference) were filled with the appropriate leuprolide acetate solution. The filled devices then underwent stability testing. The formulation was filled into titanium or polymer reservoirs with a polymer plug blocking each end. The filled reservoir was then sealed in a polyfoil bag and placed in a stability testing oven. […] The chromatographic conditions used are listed below. Leuprolide standards (in water) at 4 to 6 different concentration levels, typically between 0.1-1.2 mg/mL, were run along with the stability samples. The stability samples were bracketed by the standard sets, with no more than 40 samples in between the standard sets. All peaks between the void volume and 45 minutes of the run were integrated. The integrated peak areas for the leuprolide standards were plotted as a function of the concentration. The leuprolide concentrations for the stability samples were then calculated using linear regression. The % peak areas for the leuprolide peak, the sum of all the peaks eluting before leuprolide (labeled "others"), and the sum of all the peaks eluting after leuprolide (labeled "aggregates") were also recorded and plotted as a function of the sample timepoints. Formulations of 40% (w/w) leuprolide acetate (equivalent to about 37% leuprolide free base) in either sterile distilled water, ethanol/water (70/30) or water with 10% Tween 20 were prepared as described above and used to fill the reservoirs of implantable drug delivery devices, also as described above. Some reservoirs were made of polymer materials, while some were titanium. The filled devices were subjected to accelerated aging by storing them at elevated temperatures (80-88° C.) for seven days in an incubator (Precision Scientific or Thelco). This is equivalent to about 1.5 years at 37° C. or about four years at room temperature (25° C.), assuming an activation energy (Ea) or 22.2 kcal/mole. The samples were analyzed using RP-HPLC and SEC as described above to determine the chemical and physical stability of the aged formulations.

[5] = Stability of 40% leuprolide acetate formulations after 2.5 megarad gamma irradiation and accelerated aging, RP-HPLC and SEC; type: physicochemical; conditions: for % Leuprolide at Day 7 (RP-HPLC) / SEC Day 0 % dimer/trimer / SEC Day 0 % monomer / SEC Day 7 % dimer/trimer / SEC Day 7 % monomer: 40% in Water
Protocol: (§2) The chromatographic conditions used are listed below.
Formulations of 40% (w/w) as received leuprolide acetate (equivalent to 37% leuprolide free base) in water were prepared as described above and used to fill the reservoirs of drug delivery devices, also as described above. Some reservoirs were made of polymer materials, while some were titanium.
The filled devices were subjected to 2.5 megarad gamma irradiation. Samples were shipped to Sterigenics (Tustin, Calif.) and gamma irradiated (Cobalt 60) in batch mode. Samples were then subjected to accelerated aging as in Example 1. Samples labeled "cold" were shipped and irradiated on dry ice. Samples were taken at day 0 and day 7, and analyzed using RP-HPLC and SEC as described above to determine the chemical and physical stability of the irradiated formulations.

[6] = Protocol: as §2
Selected stability samples were analyzed for % peak area and molecular weights using an isocratic solution SEC assay with a refrigerated autosampler (4° C.). The chromatographic conditions used are listed below.
Solutions of 40% leuprolide acetate (w/w) in water were prepared, loaded into reservoirs, stored for two months at 80° C. and analyzed as described above.
Leuprolide acetate solutions (40% (w/w) in water) were prepared, loaded, stored at 37° C., 50° C., 65° C. or 80° C. and analyzed using RP-HPLC as described above.
Solutions of 40% leuprolide acetate (w/w) in water were prepared, loaded into reservoirs, stored at 37° C., 50° C., 65° C. or 80° C. and analyzed using RP-HPLC as described above.

[7] = system: bacteria; assay: Bacteriostatic, bactericidal and sporicidal activity of leuprolide formulations; spiking with bacteria; conditions: formulations of 50-400 mg/ml
[8] = 40% in water, nine months at 37° C., RP-HPLC
Protocol: All stability samples were analyzed for leuprolide concentration and % peak area using a gradient elution reversed-phase HPLC assay with a refrigerated autosampler (4° C.) to minimize sample degradation.

[9] = Stability of 15% nafarelin formulation, one month at 37° C., RP-HPLC; type: physicochemical; conditions: 15% (w/w), Acetate Buffer/Mannitol
Protocol: as §1, with “15%” for “40-45%”, “nafarelin” for “goserelin”, “in” for “in either”, “buffer” for “buffer,”, “mannitol” for “mannitol or acetate buffer with salt (0.9% NaCl)”

[10] = Acetate Buffer/Salt (0.9% NaCl)
[11] = all Table IV formulations, after irradiation and 7 days accelerated aging
[12] = polymer reservoir, irradiated cold (on dry ice)
[13] = polymer reservoir, not irradiated
[14] = titanium reservoir, not irradiated

goserelin remained [1]: about 65%
% PURITY ([2]; Acetate Buffer/Mannitol): 98.1%
% CONCENTRATION ([2]; Acetate Buffer/Mannitol): 54.2%
% PURITY [2, 10]: 98.0%
% CONCENTRATION [2, 10]: 50.1%
goserelin retained, in each case ([2]; both vehicles): at least 98%
effect of adding polar aprotic solvents such as DMSO on gelation [3]: prevents gelation
Molecule: CC(C)C[C@H](NC(=O)[C@@H](COC(C)(C)C)NC(=O)[C@H](Cc1ccc(O)cc1)NC(=O)[C@H](CO)NC(=O)[C@H](Cc1c[nH]c2ccccc12)NC(=O)[C@H](Cc1cnc[nH]1)NC(=O)[C@@H]1CCC(=O)N1)C(=O)N[C@@H](CCCNC(=N)N)C(=O)N1CCC[C@H]1C(=O)NNC(N)=O [Goserelin, goserelin]

Molecule: CCNC(=O)[C@@H]1CCCN1C(=O)[C@H](CCCNC(=N)N)NC(=O)[C@H](CC(C)C)NC(=O)[C@@H](CC(C)C)NC(=O)[C@H](Cc1ccc(O)cc1)NC(=O)[C@H](CO)NC(=O)[C@H](Cc1c[nH]c2ccccc12)NC(=O)[C@H](Cc1c[nH]cn1)NC(=O)[C@@H]1CCC(=O)N1 [Leuprolide Acetate, leuprolide acetate]
evaporated from reservoir ([4]; polymer reservoir, 40% in EtOH/H2O): 60%
evaporated from reservoir ([4]; polymer reservoir, 40% in Water (sample with 66% leuprolide)): 10%
% Leuprolide at Day 7 ([4]; polymer reservoir, 40% in 10% Tween 20): 65%
% Leuprolide at Day 7 ([4]; polymer reservoir, 40% in EtOH/H2O (70/30)): 85%
% Leuprolide at Day 7 ([4]; polymer reservoir, 40% in Water): 68% and 66%
% Leuprolide at Day 7 ([4]; titanium reservoir, 40% in Water): 71%
leuprolide retained, in each case ([4]; all Table III formulations, 7 days at 80-88° C.): at least 65%
aggregate formation [5, 11]: low levels of aggregate formation
leuprolide retained, in every case [5, 11]: at least 65%
% Leuprolide at Day 7 (RP-HPLC) ([5]; polymer reservoir, irradiated): 75%
SEC Day 0 % dimer/trimer ([5]; polymer reservoir, irradiated): 1.2%
SEC Day 0 % monomer ([5]; polymer reservoir, irradiated): 90.4%
SEC Day 7 % dimer/trimer ([5]; polymer reservoir, irradiated): 3.9%
SEC Day 7 % monomer ([5]; polymer reservoir, irradiated): 80.9%
% Leuprolide at Day 7 (RP-HPLC) [5, 12]: 79%
SEC Day 0 % dimer/trimer [5, 12]: 0.2%
SEC Day 0 % monomer [5, 12]: 89.4%
SEC Day 7 % dimer/trimer [5, 12]: 3.1%
SEC Day 7 % monomer [5, 12]: 80.3%
% Leuprolide at Day 7 (RP-HPLC) [5, 13]: 75%
SEC Day 0 % dimer/trimer [5, 13]: 0.2%
SEC Day 0 % monomer [5, 13]: 99.8%
SEC Day 7 % dimer/trimer [5, 13]: 3.1%
SEC Day 7 % monomer [5, 13]: 82.4%
% Leuprolide at Day 7 (RP-HPLC) ([5]; titanium reservoir, irradiated): 83% and 81% and 73% and 79% and 74%
SEC Day 0 % dimer/trimer ([5]; titanium reservoir, irradiated): 1.1% and 0.9% and 0.8% and 0.5%
SEC Day 0 % monomer ([5]; titanium reservoir, irradiated): 98.5% and 98.8% and 99.1% and 99% and 98.6%
SEC Day 7 % dimer/trimer ([5]; titanium reservoir, irradiated): 2% and 2.4% and 3% and 3.4% and 3.6%
SEC Day 7 % monomer ([5]; titanium reservoir, irradiated): 84.9% and 94.7% and 88.3% and 94.3% and 90.9%
% Leuprolide at Day 7 (RP-HPLC) [5, 14]: 82%
SEC Day 0 % dimer/trimer [5, 14]: 0%
SEC Day 0 % monomer [5, 14]: 99.6% and 99.9%
SEC Day 7 % dimer/trimer [5, 14]: 0% and 1.9%
SEC Day 7 % monomer [5, 14]: 96.6% and 95%
chemical degradation [6]: 14.6%
activation energy (Ea) of leuprolide loss ([6]; 40% (w/w) in water, 37-80° C.): 22.2 kcal/mol
Kobs ([6]; 40% (w/w) in water, 37° C.): 7.24 × 10^-3 months^-1
t1/2 ([6]; 40% (w/w) in water, 37° C.): 95.7 months
t90 ([6]; 40% (w/w) in water, 37° C.): 13.8 months
Kobs ([6]; 40% (w/w) in water, 50° C.): 3.21 × 10^-2 months^-1
t1/2 ([6]; 40% (w/w) in water, 50° C.): 21.6 months
Kobs ([6]; 40% (w/w) in water, 65° C.): 0.111 months^-1
t1/2 ([6]; 40% (w/w) in water, 65° C.): 6.3 months
Kobs ([6]; 40% (w/w) in water, 80° C.): 0.655 months^-1
t1/2 ([6]; 40% (w/w) in water, 80° C.): 1.1 months
physical aggregation ([6]; 40% (w/w) in water, two months at 80° C.): 5.1%
leuprolide recovered ([6]; 40% (w/w) in water, two months at 80° C., RP-HPLC): 81.1%
aggregation by SEC (FIG. 2) ([6]; 40% in water, two months at 80° C., dimer and trimer only): very little aggregation
antimicrobial activity [7]: bacteriostatic, bactericidal and sporicidal activity
stability of samples after spiking with bacteria [7]: unaffected
effect of adding polar aprotic solvents such as DMSO on gelation [3]: prevents gelation
leuprolide present [8]: 88.3%
physical aggregates ("late") [8]: 3.5%

% PURITY [9]: 98.8%
nafarelin retained [9]: at least 98%
% CONCENTRATION ([9]; patent calls these data inconclusive): 18.3%
Molecule: CC(C)C[C@H](NC(=O)[C@@H](Cc1ccc2ccccc2c1)NC(=O)[C@H](Cc1ccc(O)cc1)NC(=O)[C@H](CO)NC(=O)[C@H](Cc1c[nH]c2ccccc12)NC(=O)[C@H](Cc1c[nH]cn1)NC(=O)[C@@H]1CCC(=O)N1)C(=O)N[C@@H](CCCNC(=N)N)C(=O)N1CCC[C@H]1C(=O)NCC(N)=O [Nafarelin, nafarelin]

effect of adding polar aprotic solvents such as DMSO on gelation [3]: prevents gelation
Molecule: calcitonin
